Results from patent publication US8609654B1, “Compounds for enzyme inhibition” (Onyx Therapeutics, Inc., priority 2006, dated 2013).

What was measured:
[1] = target: T1, 20S proteasome subunit β5 vs immunoproteasome subunit LMP7 in RPMI-8226 cells (Homo sapiens, UniProt P28062+P28074); experiment: ELISA-based active site assay in RPMI-8226 cells (ELISA ratio); type: cell-based; conditions: EC50 ratio with β5 antibody to LMP7 antibody, RPMI-8226 cells; >1 = prefers immunoproteasome
T1 construct: Cells expressing approximately equivalent amounts of immuno- and constitutive proteasome (e.g., RPMI-8226) are treated with test compound; endogenous in cells; host or cells: RPMI-8226 multiple myeloma cells
T1 sequence (P28074 60-263): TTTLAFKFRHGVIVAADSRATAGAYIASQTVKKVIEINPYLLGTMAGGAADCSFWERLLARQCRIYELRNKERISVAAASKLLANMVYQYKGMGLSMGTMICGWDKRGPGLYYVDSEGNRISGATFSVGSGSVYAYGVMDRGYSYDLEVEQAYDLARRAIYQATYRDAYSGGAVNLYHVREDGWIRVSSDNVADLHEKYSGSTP
T1 sequence (P28062 73-276): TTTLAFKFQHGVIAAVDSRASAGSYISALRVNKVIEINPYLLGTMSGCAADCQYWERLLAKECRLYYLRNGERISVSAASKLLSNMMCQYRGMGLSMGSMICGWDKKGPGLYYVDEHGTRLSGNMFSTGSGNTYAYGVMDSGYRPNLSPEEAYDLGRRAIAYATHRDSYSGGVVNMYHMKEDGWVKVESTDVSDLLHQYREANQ
Protocol: Lastly, a more cell-based approach can be utilized. Cells expressing approximately equivalent amounts of immuno- and constitutive proteasome (e.g., RPMI-8226) are treated with test compound, followed by the method for determining the activity of a proteasome inhibitor as described in application Ser. No. 11/254,541. The ratio of the EC50 generated in the ELISA-based assay using β5 antibody and LMP7 antibodies (ELISA ratio) provides the basis for determining the inhibitory preference of the test compound. […] In all three assays, a ratio of less than one denotes the molecule inhibits the CT-L activity of the constitutive proteasome better than that of the immunoproteasome. Ratios greater than one signifies the molecule inhibits chymotrypsin-like activity of the immunoproteasome better than that of the constitutive proteasome.
A suitable ELISA assay may be found in U.S. patent application Ser. No. 11/254,541, incorporated herein in its entirety. Briefly, RPMI-8226 cells were treated with 0.1 nM to 1 μM of proteasome Inhibitor B. The samples were then washed with phosphate-buffered saline (PBS) and lysed in hypotonic buffer (20 mM Tris pH 8, 5 mM EDTA) (Tris-HCl and EDTA are available from Teknova, Inc., Hollister, Calif.). Cellular debris was removed by centrifugation at 14,000 rpm in a microfuge (4° C.) for 2 min. The supernatant was transferred to a fresh tube, snap frozen in liquid nitrogen and stored at −80° C. After thawing on ice, the samples (30 μl for assays run in triplicate) were treated with 500 nM of Inhibitor A for 1 hr at room temperature. Following treatment with Inhibitor A, the lysate was denatured by addition of seven volumes of 1% SDS (210 μl) (available from Bio-Rad, Hercules, Calif.) and heating at 99° C. with vigorous shaking for 5 min. The sample was allowed to cool and two volumes (60 μl) of 10% Triton X-100 (available from Bio-Rad, Hercules, Calif.) was added.
Streptavidin sepharose beads (6.5 μl/well) (available from Amersham Biosciences, Piscataway, N.J.), were washed three times with 1 ml PBS (available from Mediatech, Inc., Herndon, Va.) in a microcentrifuge tube. The beads were resuspended in ELISA wash/block buffer (PBS+0.1% Tween 20+1% bovine serum albumin; 20 μl/well) and transferred to the wells of a 96 well filter plate (BSA is available from Sigma, St. Louis, Mo.; Tween is available from Calbiochem, San Diego, Calif.). Denatured whole blood or PBMC lysates that were treated with Inhibitor 3 were added to the filter plate wells containing the streptavidin sepharose beads (each sample assayed in triplicate) and incubated for 1 hr at room temperature with shaking (MultiScreen-DV Opaque Plates with low protein binding durapore membrane; available from Millipore, Billerica, Mass.). The unbound material was removed by gentle filtration and the beads were washed six times with ELISA wash/block buffer (200 μl each).
Primary antibody to human 20S proteasome subunit (35 (rabbit polyclonal antibody; available from Biomol, Plymouth Meeting, Pa.) or human 20S immunoproteasome subunit LMP7 (rabbit polyclonal antibody; available from Affinity BioReagents, Golden, Colo.) was diluted 1:1000 in ELISA wash/block buffer, added to the beads (100 μl/well), and incubated for 1 hr at room temperature on an orbital shaker. The beads were washed six times with ELISA wash/block buffer with gentle filtration. Secondary antibody treatment (1:5000) and washing are as described for primary antibody (goat anti-rabbit antibody-HRP conjugate; available from Biosource, Camarillo, Calif.). The beads were then resuspended in 100 μl chemiluminescent detection reagent (Super Signal Pico Chemiluminescent Substrate™; available from Pierce, Rockford, Ill.) and luminescence was read on a Tecan plate reader. […]

[2] = target: T2, 26S proteasome CT-L activity in lysate of HT29 (constitutive) vs Sultan/Thp1 (immunoproteasome) cells (Homo sapiens, UniProt P28062+P28074); experiment: CT-L EC50 with 26S proteasome in cell lysate (Lysate ratio); type: biochemical; conditions: HT29 lysate to Sultan/Thp1 lysate, >1 = prefers immunoproteasome
T2 construct: using 26S proteasome in the context of a cell lysate; endogenous in cells; host or cells: HT29 lysate (constitutive); Sultan or THP1 lysate (immunoproteasome)
T2 sequence (P28074 60-263): T1 sequence (P28074 60-263)
T2 sequence (P28062 73-276): T1 sequence (P28062 73-276)
Protocol: Alternatively, the CT-L EC50 of a compound can be determined using 26S proteasome in the context of a cell lysate. Compound is added to lysate generated from cells that either predominantly express constitutive proteasome (e.g., HT29) or immunoproteasome (e.g., THP1). Again, the inhibitory preference is then based on the EC50 ratio (Lysate ratio).

[3] = test system: chymotryptic-like activity of isolated 20S constitutive proteasome vs immunoproteasome; experiment: Enzyme kinetic assay with isolated 20S proteasome preps, EC50 ratio of CT-L activity (20S ratio); type: biochemical; conditions: constitutive proteasome to immunoproteasome, >1 = prefers immunoproteasome
From the text: Enzyme kinetic assays such as those disclosed in U.S. application Ser. No. 09/569,748, Example 2 and Stein et al., Biochem. (1996), 35, 3899-3908 use isolated 20S proteasome preps with greater than 90% constitutive proteasome subunits or immunoproteasome subunits. The inhibitory preference of the molecule is then based on the EC50 ratio of the chymotryptic-like activity of the constitutive proteasome to that of the immunoproteasome (20S ratio).

Row | Elisa ratio (beta5:LMP7) [1] | Lysate ratio (HT29:Sultan/Thp1) [2] | 20 S ratio (const:immuno) [3] | SMILES
1 | >1.0 | >3.0 | >1.0 | CC1(C(=O)[C@H](Cc2ccccc2)NC(=O)[C@H](Cc2c[nH]c3ccccc23)NC(=O)[C@H](CCC(N)=O)NC(=O)OCc2ccccc2)CO1 (stereo partly drawn)
2 | <1.0 | <1.0 | <1.0 | CC1(C(=O)[C@H](Cc2ccccc2)NC(=O)[C@H](Cc2ccccc2)NC(=O)[C@H](Cc2c[nH]cn2)NC(=O)OCc2ccccc2)CO1 (stereo partly drawn)
3 | <0.5 | <1.0 | <1.0 | CC(NC(=O)OCc1ccccc1)C(=O)N1Cc2ccccc2C[C@@H]1C(=O)N[C@@H](Cc1ccccc1)C(=O)C1(C)CO1 (stereo partly drawn)
4 | >2.0 | >3.0 | >3.0 | CC1(C(=O)[C@H](Cc2ccccc2)NC(=O)[C@H](Cc2ccccc2)NC(=O)C(CC(=O)O)NC(=O)OCc2ccccc2)CO1 (stereo partly drawn)
5 | <0.5 | <0.5 | <0.5 | CC(NC(=O)OCc1ccccc1)C(=O)N[C@@H](Cc1ccccc1)C(=O)N[C@@H](C)C(=O)C1(C)CO1 (stereo partly drawn)
6 | <1.0 | <0.5 | <0.5 | CC(C)C[C@H](NC(=O)[C@H](Cc1ccccc1)NC(=O)C(C)NC(=O)OCc1ccccc1)C(=O)C1(C)CO1 (stereo partly drawn)
7 | <1.0 | <0.5 | <0.5 | CC[C@H](C)C(NC(=O)[C@H](Cc1c[nH]c2ccccc12)NC(=O)[C@H](C)NC(=O)OCc1ccccc1)C(=O)C1(C)CO1 (stereo partly drawn)
8 | >5.0 | >5.0 | >5.0 | C[C@@H](NC(=O)OCc1ccccc1)C(=O)N[C@@H](Cc1c[nH]c2ccccc12)C(=O)N[C@@H](Cc1ccccc1)C(=O)C1(C)CO1 (stereo partly drawn)
9 | >1.0 | >3.0 | >3.0 | CC1(C(=O)[C@H](Cc2ccccc2)NC(=O)[C@H](Cc2c[nH]c3ccccc23)NC(=O)[C@@H](NC(=O)OCc2ccccc2)c2ccccc2)CO1 (stereo partly drawn)
10 | >5.0 | >5.0 | >2.0 | Cc1ccc(C[C@H](NC(=O)[C@H](C)NC(=O)OCc2ccccc2)C(=O)N[C@@H](Cc2ccccc2)C(=O)C2(C)CO2)cc1 (stereo partly drawn)
11 | <0.5 | <0.5 | <0.5 | CC(C)C[C@H](NC(=O)OCc1ccccc1)C(=O)N[C@@H](Cc1ccccc1)C(=O)N[C@@H](CC(C)C)C(=O)C1(C)CO1 (stereo partly drawn)
12 | >3.0 | >5.0 | >5.0 | C[C@@H](NC(=O)OCc1ccccc1)C(=O)N[C@@H](Cc1c[nH]c2ccccc12)C(=O)N[C@@H](Cc1ccc(O)cc1)C(=O)C1(C)CO1 (stereo partly drawn)
13 | >3.0 | >2.0 | >5.0 | CC1(C(=O)[C@H](Cc2ccccc2)NC(=O)[C@H](Cc2ccccc2)NC(=O)[C@@H](Cc2ccccc2)NC(=O)OCc2ccccc2)CO1 (stereo partly drawn)
14 | >5.0 | >3.0 | >5.0 | CC[C@H](C)C(NC(=O)OCc1ccccc1)C(=O)N[C@@H](Cc1c[nH]c2ccccc12)C(=O)N[C@@H](Cc1ccccc1)C(=O)C1(C)CO1 (stereo partly drawn)
15 | <0.5 | <0.5 | <0.5 | CC(C)C[C@H](NC(=O)OCc1ccccc1)C(=O)N[C@H](CC(C)C)C(=O)N[C@@H](Cc1ccccc1)C(=O)C1(C)CO1 (stereo partly drawn)
16 | >5.0 | >2.0 | >1.0 | C[C@H](NC(=O)OCc1ccccc1)C(=O)N[C@@H](Cc1ccc(C#N)cc1)C(=O)N[C@@H](Cc1ccccc1)C(=O)C1(C)CO1 (stereo partly drawn)
17 | >3.0 | >2.0 | >2.0 | C[C@H](NC(=O)OCc1ccccc1)C(=O)N[C@@H](Cc1ccc(C(C)(C)C)cc1)C(=O)N[C@@H](Cc1ccccc1)C(=O)C1(C)CO1 (stereo partly drawn)
18 | >5.0 | >5.0 | >5.0 | CC(C)C[C@@H](NC(=O)OCc1ccccc1)C(=O)N[C@@H](Cc1c[nH]c2ccccc12)C(=O)N[C@@H](Cc1ccccc1)C(=O)C1(C)CO1 (stereo partly drawn)
19 | >2.0 | >3.0 | >3.0 | CC1(C(=O)[C@H](Cc2ccccc2)NC(=O)[C@H](Cc2c[nH]c3ccccc23)NC(=O)C(CC(=O)O)NC(=O)OCc2ccccc2)CO1 (stereo partly drawn)
20 | >2.0 | >2.0 | >5.0 | CC(C)C(NC(=O)OCc1ccccc1)C(=O)N[C@@H](Cc1ccccc1)C(=O)N[C@@H](Cc1ccccc1)C(=O)C1(C)CO1 (stereo partly drawn)
21 | >1.0 | >2.0 | >5.0 | CC(NC(=O)OCc1ccccc1)C(=O)N[C@@H](Cc1ccc(C(F)(F)F)cc1)C(=O)N[C@@H](Cc1ccccc1)C(=O)C1(C)CO1 (stereo partly drawn)
22 | >5.0 | >5.0 | >5.0 | CC(C)C(NC(=O)OCc1ccccc1)C(=O)N[C@@H](Cc1c[nH]c2ccccc12)C(=O)N[C@@H](Cc1ccccc1)C(=O)C1(C)CO1 (stereo partly drawn)
23 | >3.0 | >3.0 | >2.0 | CC(NC(=O)OCc1ccccc1)C(=O)N[C@@H](Cc1ccccc1)C(=O)N[C@@H](CCc1ccccc1)C(=O)C1(C)CO1 (stereo partly drawn)
24 | >5.0 | >2.0 | >5.0 | COc1ccc(C[C@H](NC(=O)C(C)NC(=O)OCc2ccccc2)C(=O)N[C@@H](Cc2ccc(O)cc2)C(=O)C2(C)CO2)cc1 (stereo partly drawn) [drawing 65]
